According to patent US11141384B2, “Long-acting formulations” (Janssen Pharmaceutica NV, priority 2017, dated 2021):
Read-outs that look alike come from different tables or passages of the source.

How the values were obtained:
[1] = test system: M. tuberculosis H37Rv; assay type: in vivo, Mycobacterium tuberculosis; conditions: for Mean (SD) log10 M. tuberculosis CFU/lung: 5 days per week
[2] = Oral (PO) 13 week toxicity study in rats, total exposure; assay type: in vivo; conditions: rat, top dose of 13 week study
[3] = Oral (PO) 13 week toxicity study, comparison with dog IM/SC exposure; assay type: in vivo, beagle dog; conditions: 13 week PO study, 18 mg/kg
[4] = target: mycobacterial ATP synthase (Mycobacterium tuberculosis, UniProt P9WPS1+P9WPV7); conditions: cited from earlier work
[5] = test system: M lepra; conditions: cited from earlier work
[6] = in vivo; cited from earlier work

In the case of `CO[C@H]1/C=C/O[C@@]2(C)Oc3c(C)c(O)c4c(O)c(c(/C=N/N5CCN(C)CC5)c(O)c4c3C2=O)NC(=O)/C(C)=C\C=C\[C@H](C)[C@H](O)[C@@H](C)[C@@H](O)[C@@H](C)[C@H](OC(C)=O)[C@@H]1C` [R, rifampin], the “reduction of mean M. tuberculosis lung CFU count compared to untreated mice” value ([1]; 10 mg/kg by gavage 5/7, after 4 weeks of treatment) is reported as “approximately 1 log10 CFU/lung”, the “reduction of mean M. tuberculosis lung CFU count compared to untreated mice” value ([1]; 10 mg/kg by gavage 5/7, after 8 weeks of treatment) is reported as “about 2 log10 CFU/lung” and the “reduction of mean M. tuberculosis lung CFU count compared to untreated mice” value ([1]; 10 mg/kg by gavage 5/7, after 12 weeks of treatment) is reported as ~3 log10 CFU/lung. For the same compound, the “Mean (SD) log10 M. tuberculosis CFU/lung” value ([1]; regimen R10 (5/7): rifampin 10 mg/kg, Week 4 of treatment) was 3.39 (0.46) log10 CFU/lung, the “Mean (SD) log10 M. tuberculosis CFU/lung” value ([1]; regimen R10 (5/7): rifampin 10 mg/kg, Week 8 of treatment) was 2.74 (0.62) log10 CFU/lung and the “Mean (SD) log10 M. tuberculosis CFU/lung” value ([1]; regimen R10 (5/7): rifampin 10 mg/kg, Week 12 of treatment) was 1.27 (0.85) log10 CFU/lung.
For `COc1nc2ccc(Br)cc2cc1[C@@H](c1ccccc1)[C@@](O)(CCN(C)C)c1cccc2ccccc12` [bedaquiline], the “decline in lung CFU compared to untreated control mice” value ([1]; 2.67 mg/kg by gavage 5/7, 12 weeks (total 160 mg/kg)) was 1.7 log10 CFU/lung, the “decline in lung CFU counts” value ([1]; 5.33 mg/kg by gavage 5/7, 12 weeks (total 320 mg/kg)) was “about 3 log10 CFU/lung” and the “additional decrease of lung CFU counts” value ([1]; 8 mg/kg by gavage 5/7, 8 weeks versus 4 weeks) was 1 log10. For the same compound, the “decline in lung CFU relative to untreated mice” value ([1]; 8 mg/kg by gavage 5/7, four weeks) was “about 1.5 log10 CFU/lung”, the “reduction of M. tuberculosis lung CFU compared to untreated mice” value (from here on “reduction of M. tuberculosis lung CFU”) ([1]; 25 mg/kg by gavage 5/7, after 4 weeks) was “about 1.7 log10 CFU/lung” and the “reduction of M. tuberculosis lung CFU” value ([1]; 25 mg/kg by gavage 5/7, after 8 weeks) was ~4.0 log10 CFU/lung. For the same compound, the “reduction of M. tuberculosis lung CFU” value ([1]; 25 mg/kg by gavage 5/7, after 12 weeks) was ~4.9 log10 CFU/lung, the “Mean (SD) log10 M. tuberculosis CFU/lung” value ([1]; regimen B2.67 (5/7): oral bedaquiline 2.67 mg/kg, Week 4 of treatment) was 3.96 (0.35) log10 CFU/lung and the “Mean (SD) log10 M. tuberculosis CFU/lung” value ([1]; regimen B2.67 (5/7): oral bedaquiline 2.67 mg/kg, Week 8 of treatment) was 3.52 (0.38) log10 CFU/lung. The “Mean (SD) log10 M. tuberculosis CFU/lung” value ([1]; regimen B2.67 (5/7): oral bedaquiline 2.67 mg/kg, Week 12 of treatment) was 3.16 (0.24) log10 CFU/lung, the “Mean (SD) log10 M. tuberculosis CFU/lung” value ([1]; regimen B5.33 (5/7): oral bedaquiline 5.33 mg/kg, Week 4 of treatment) was 3.83 (0.25) log10 CFU/lung and the “Mean (SD) log10 M. tuberculosis CFU/lung” value ([1]; regimen B5.33 (5/7): oral bedaquiline 5.33 mg/kg, Week 8 of treatment) was 3.15 (0.47) log10 CFU/lung. The “Mean (SD) log10 M. tuberculosis CFU/lung” value ([1]; regimen B5.33 (5/7): oral bedaquiline 5.33 mg/kg, Week 12 of treatment) was 1.98 (0.17) log10 CFU/lung, the “Mean (SD) log10 M. tuberculosis CFU/lung” value ([1]; regimen B8 (5/7): oral bedaquiline 8 mg/kg, Week 4 of treatment) was 3.30 (0.12) log10 CFU/lung and the “Mean (SD) log10 M. tuberculosis CFU/lung” value ([1]; regimen B8 (5/7): oral bedaquiline 8 mg/kg, Week 8 of treatment) was 2.42 (0.26) log10 CFU/lung. For the same compound, the “Mean (SD) log10 M. tuberculosis CFU/lung” value ([1]; regimen B8 (5/7): oral bedaquiline 8 mg/kg, Week 12 of treatment) was 0.69 (0.43) log10 CFU/lung, the “Mean (SD) log10 M. tuberculosis CFU/lung” value ([1]; regimen B25 (5/7): oral bedaquiline 25 mg/kg, Week 4 of treatment) was 3.01 (0.45) log10 CFU/lung and the “Mean (SD) log10 M. tuberculosis CFU/lung” value ([1]; regimen B25 (5/7): oral bedaquiline 25 mg/kg, Week 8 of treatment) was 0.82 (0.49) log10 CFU/lung. For the same compound, the “Mean (SD) log10 M. tuberculosis CFU/lung” value ([1]; regimen B25 (5/7): oral bedaquiline 25 mg/kg, Week 12 of treatment) was 0.07 (0.09) log10 CFU/lung, the “total exposure after PO administration during 3 months” value [2] was 2 385 383 ng·h/mL and the “total exposure after PO for the same period” value [3] was 13 988 520 ng·h/mL. For the same compound, the “selectivity index for mycobacterial ATP synthase versus eukaryotic mitochondrial ATP synthase” value [4] was “more than 20000”, the “minimal dose killing 99% of bacilli” value [5] was < 5.0 mg/kg/wk and the “mean terminal elimination half-life” value [6] was “approximately 5.5 months”.
In the case of `CNCC[C@@](O)(c1cccc2ccccc12)[C@H](c1ccccc1)c1cc2cc(Br)ccc2nc1OC` [Formulation M2], the “mean terminal elimination half-life” value [6] is given as “approximately 5.5 months”.
